Data taken from US20130157954A1, “METHODS FOR TREATMENT OR PROPHYLAXIS OF KIDNEY OR LIVER DYSFUNCTION” (NPS PHARMACEUTICALS, INC., priority 2010, published 2013).

Test: Example 1: kidney biomarkers (urea nitrogen, creatinine, GFR) in short bowel syndrome patients, every four weeks for 24 weeks; also sorted by >5% change from baseline
Type: in vivo, Human
Design: CREATININE (RATE BLANKED) Change from Baseline Median / GFR Median / GFR Change from Baseline Median / UREA NITROGEN Median / UREA NITROGEN Change from Baseline Median: unit not given here
Settings: for CREATININE (RATE BLANKED) change from baseline <−5%, number of patients / CREATININE (RATE BLANKED) change from baseline <−5%, percent of patients / CREATININE (RATE BLANKED) change from baseline >5%, number of patients / CREATININE (RATE BLANKED) change from baseline >5%, percent of patients / CREATININE (RATE BLANKED) change from baseline −5% <= and <=5%, number of patients / CREATININE (RATE BLANKED) change from baseline −5% <= and <=5%, percent of patients / GFR change from baseline <−5%, number of patients / GFR change from baseline <−5%, percent of patients / GFR change from baseline >5%, number of patients / GFR change from baseline >5%, percent of patients / GFR change from baseline −5% <= and <=5%, number of patients / GFR change from baseline −5% <= and <=5%, percent of patients / UREA NITROGEN change from baseline <−5%, number of patients / UREA NITROGEN change from baseline <−5%, percent of patients / UREA NITROGEN change from baseline >5%, number of patients / UREA NITROGEN change from baseline >5%, percent of patients / UREA NITROGEN change from baseline −5% <= and <=5%, number of patients / UREA NITROGEN change from baseline −5% <= and <=5%, percent of patients: 0.1 mg/kg/day
Procedure: Human patients with short bowel syndrome were divided into three groups: a control group (16 total individuals) to receive placebo, an experimental group (35 total individuals) to receive teduglutide at 0.05 mg/kg/day throughout the study, and an experimental group (32 total individuals) to receive teduglutide at 0.1 mg/kg/day throughout the study. Patients were treated by subcutaneous injection of placebo or the appropriate dose of teduglutide. As individuals with short bowel syndrome are likely to experience associated liver and kidney disease, known biomarkers of liver and kidney function were monitored every four weeks, for 24 weeks. The liver biomarkers tested included total bilirubin, ALT and AST and ALP. The kidney biomarkers tested included urea nitrogen, creatinine and GFR. Before administration of placebo or teduglutide, diagnostic biomarker levels were tested to establish a baseline for each individual.
To visualize the effect of GLP-2 on the levels of the diagnostic biomarkers, the average change from baseline was calculated for the placebo and teduglutide treated groups for each visit after a baseline was established. The average change from baseline of each group is depicted in FIGS. 1-7. The numerical figures for each diagnostic biomarker at each time point are depicted in Table 1.
The raw data for this sorting is reproduced in Table 2 below.

CC[C@H](C)[C@H](NC(=O)[C@H](Cc1ccccc1)NC(=O)[C@H](CC(=O)O)NC(=O)[C@H](CCCNC(=N)N)NC(=O)[C@H](C)NC(=O)[C@H](C)NC(=O)[C@H](CC(C)C)NC(=O)[C@H](CC(N)=O)NC(=O)[C@H](CC(=O)O)NC(=O)[C@H](CC(C)C)NC(=O)[C@@H](NC(=O)[C@@H](NC(=O)[C@H](CC(N)=O)NC(=O)[C@H](CCSC)NC(=O)[C@H](CCC(=O)O)NC(=O)[C@H](CC(=O)O)NC(=O)[C@H](CO)NC(=O)[C@H](Cc1ccccc1)NC(=O)[C@H](CO)NC(=O)CNC(=O)[C@H](CC(=O)O)NC(=O)CNC(=O)[C@@H](N)Cc1c[nH]cn1)[C@@H](C)O)[C@@H](C)CC)C(=O)N[C@@H](CC(N)=O)C(=O)N[C@@H](Cc1c[nH]c2ccccc12)C(=O)N[C@@H](CC(C)C)C(=O)N[C@H](C(=O)N[C@@H](CCC(N)=O)C(=O)N[C@H](C(=O)N[C@@H](CCCCN)C(=O)N[C@H](C(=O)N[C@H](C(=O)N[C@@H](CC(=O)O)C(=O)O)[C@@H](C)O)[C@@H](C)CC)[C@@H](C)O)[C@@H](C)CC [teduglutide]
CREATININE (RATE BLANKED) Change from Baseline Median (0.10 mg/kg/day, DW4): −0.5 | CREATININE (RATE BLANKED) Median (0.10 mg/kg/day, DW4): 83 µmol/L | GFR Change from Baseline Median (0.10 mg/kg/day, DW4): 3.1 | UREA NITROGEN Change from Baseline Median (0.10 mg/kg/day, DW4): 0.2 | UREA NITROGEN Median (0.10 mg/kg/day, DW4): 6.3 | CREATININE (RATE BLANKED) Change from Baseline Median (0.10 mg/kg/day, DW8): 0.0 | CREATININE (RATE BLANKED) Median (0.10 mg/kg/day, DW8): 86 µmol/L | GFR Change from Baseline Median (0.10 mg/kg/day, DW8): 0.2 | UREA NITROGEN Change from Baseline Median (0.10 mg/kg/day, DW8): 0.1 | UREA NITROGEN Median (0.10 mg/kg/day, DW8): 6.4 | CREATININE (RATE BLANKED) Change from Baseline Median (0.10 mg/kg/day, DW12): 6.5 | GFR Change from Baseline Median (0.10 mg/kg/day, DW12): −0.5 | UREA NITROGEN Change from Baseline Median (0.10 mg/kg/day, DW12): 0.0 | UREA NITROGEN Median (0.10 mg/kg/day, DW12): 5.9 | CREATININE (RATE BLANKED) Change from Baseline Median (0.10 mg/kg/day, DW16): 0.0 | GFR Change from Baseline Median (0.10 mg/kg/day, DW16): 1.1 | UREA NITROGEN Change from Baseline Median (0.10 mg/kg/day, DW16): 0.0 | UREA NITROGEN Median (0.10 mg/kg/day, DW16): 6.1 | CREATININE (RATE BLANKED) Change from Baseline Median (0.10 mg/kg/day, DW20): 0.0 | CREATININE (RATE BLANKED) Median (0.10 mg/kg/day, DW20): 88 µmol/L | GFR Change from Baseline Median (0.10 mg/kg/day, DW20): 1.5 | UREA NITROGEN Change from Baseline Mean (SD) (0.10 mg/kg/day, DW20): −0.0 (1.60) | UREA NITROGEN Change from Baseline Median (0.10 mg/kg/day, DW20): −0.1 | UREA NITROGEN Median (0.10 mg/kg/day, DW20): 6.0 | CREATININE (RATE BLANKED) Change from Baseline Median (0.10 mg/kg/day, DW 24): 0.0 | CREATININE (RATE BLANKED) Median (0.10 mg/kg/day, DW 24): 81 µmol/L | GFR Change from Baseline Median (0.10 mg/kg/day, DW 24): 2.3 | UREA NITROGEN Change from Baseline Median (0.10 mg/kg/day, DW 24): 0.3 | UREA NITROGEN Median (0.10 mg/kg/day, DW 24): 5.9 | CREATININE (RATE BLANKED) change from baseline <−5%, number of patients (week 4): 12 | CREATININE (RATE BLANKED) change from baseline <−5%, percent of patients (week 4): (37.5%) | CREATININE (RATE BLANKED) change from baseline >5%, number of patients (week 4): 7 | CREATININE (RATE BLANKED) change from baseline >5%, percent of patients (week 4): (21.9%) | CREATININE (RATE BLANKED) change from baseline −5% <= and <=5%, number of patients (week 4): 13 | CREATININE (RATE BLANKED) change from baseline −5% <= and <=5%, percent of patients (week 4): (40.6%) | GFR change from baseline <−5%, number of patients (week 4): 7 | GFR change from baseline <−5%, percent of patients (week 4): (21.9%) | GFR change from baseline >5%, number of patients (week 4): 14 | GFR change from baseline >5%, percent of patients (week 4): (43.8%) | GFR change from baseline −5% <= and <=5%, number of patients (week 4): 11 | GFR change from baseline −5% <= and <=5%, percent of patients (week 4): (34.4%) | UREA NITROGEN change from baseline <−5%, number of patients (week 4): 10 | UREA NITROGEN change from baseline <−5%, percent of patients (week 4): (31.3%) | UREA NITROGEN change from baseline >5%, number of patients (week 4): 15 | UREA NITROGEN change from baseline >5%, percent of patients (week 4): (46.9%) | UREA NITROGEN change from baseline −5% <= and <=5%, number of patients (week 4): 7 | UREA NITROGEN change from baseline −5% <= and <=5%, percent of patients (week 4): (21.9%) | CREATININE (RATE BLANKED) change from baseline <−5%, number of patients (week 8): 8 | CREATININE (RATE BLANKED) change from baseline <−5%, percent of patients (week 8): (25.0%) | CREATININE (RATE BLANKED) change from baseline >5%, number of patients (week 8): 13 | CREATININE (RATE BLANKED) change from baseline >5%, percent of patients (week 8): (40.6%) | CREATININE (RATE BLANKED) change from baseline −5% <= and <=5%, number of patients (week 8): 10 | CREATININE (RATE BLANKED) change from baseline −5% <= and <=5%, percent of patients (week 8): (31.3%) | GFR change from baseline <−5%, number of patients (week 8): 9 | GFR change from baseline <−5%, percent of patients (week 8): (28.1%) | GFR change from baseline >5%, number of patients (week 8): 9 | GFR change from baseline >5%, percent of patients (week 8): (28.1%) | GFR change from baseline −5% <= and <=5%, number of patients (week 8): 13 | GFR change from baseline −5% <= and <=5%, percent of patients (week 8): (40.6%) | UREA NITROGEN change from baseline <−5%, number of patients (week 8): 9 | UREA NITROGEN change from baseline <−5%, percent of patients (week 8): (28.1%) | UREA NITROGEN change from baseline >5%, number of patients (week 8): 15 | UREA NITROGEN change from baseline >5%, percent of patients (week 8): (46.9%) | UREA NITROGEN change from baseline −5% <= and <=5%, number of patients (week 8): 7 | UREA NITROGEN change from baseline −5% <= and <=5%, percent of patients (week 8): (21.9%) | CREATININE (RATE BLANKED) change from baseline <−5%, number of patients (week 12): 9 | CREATININE (RATE BLANKED) change from baseline <−5%, percent of patients (week 12): (28.1%) | CREATININE (RATE BLANKED) change from baseline >5%, number of patients (week 12): 17 | CREATININE (RATE BLANKED) change from baseline >5%, percent of patients (week 12): (53.1%)
